Values quoted from earlier work in patent US9961900B2, “Herbicide formulations” (priority 2012, dated 2018).
Values after ≈ are worked out from the molar mass of the structure shown. Like-named read-outs stand apart in the source and are kept apart here.

Key:
[1] = not given; remark: listed apart in the source
[2] = not given; remark: listed apart in the source
[3] = for Aqueous hydrolysis: at pH 7 and 20° C.

COC(=O)C(C)Oc1ccc(Oc2ccc(Cl)cc2Cl)cc1 (racemic) [diclofop-methyl, methyl (RS)-2-[4-(2,4-dichlorophenoxy)phenoxy]propionate]
Aqueous photolysis DT50 (pH 7): Aqueous photolysis DT50 at pH 7: 22 days^++ | Solubility in acetone ([1]; 20° C.): In acetone, toluene, dichloromethane, 500,000 mg/L | Solubility in dichloromethane ([1]; 20° C.): In acetone, toluene, dichloromethane, 500,000 mg/L | Solubility in n-hexane ([1]; 20° C.): mg/L; in n-Hexane: 49,700 mg/L (all at 20° C.) ^++ | Solubility in toluene ([1]; 20° C.): In acetone, toluene, dichloromethane, 500,000 mg/L | Solubility in water ([1]; 20° C.): Water: 0.39 mg/L (20° C.) | log P (octanol-water) ([2]; pH 7, 20° C.): log P = 4.8 | Aqueous hydrolysis (DT50) ([3]; 20° C. and pH 7): at 20 °C and pH 7: 31.7 days | Hydrolysis DT50 ([3]; pH 5, 25° C., darkness): 363 days | Hydrolysis DT50 ([3]; pH 7, 25° C., darkness): 31.7 days | Hydrolysis DT50 ([3]; pH 9, 25° C., darkness): 0.52 days

COc1ncc(F)c2nc(S(=O)(=O)Nc3c(F)cccc3F)nn12 [florasulam]
Photolytic stability DT50 (at pH 7): DT50: 156 d | Solubility in acetone [1]: Acetone: 123,000 mg/L | Solubility in water [1]: Water: 6360 mg/L | log P (octanol-water) [2]: log P: −1.22 | Aqueous hydrolysis [3]: Stable

CCON=C(CC)C1=C(O)CC(c2c(C)cc(C)cc2C)CC1=O (racemic) [tralkoxydim, (RS)-2-[(EZ)-1-(ethoxyimino)propyl]-3-hydroxy-5-mesitylcyclohex-2-en-1-one]
Aqueous photolysis DT50 (pH 7): Aqueous photolysis DT50 at pH 7: 5.8 days 5.8 ^+ | Solubility in water ([1]; pH 5.2): 6.7 mg/L at 22 °C (pH 5.2) | Solubility in water ([1]; pH 6.5): 6.1 mg/L at 22 °C (pH 6.5) | Solubility in water ([1]; pH 9): 9820 mg/L at 22 °C (pH 9.0) | Aqueous hydrolysis (DT50) ([3]; 20° C. and pH 7): at 20 °C and pH 7: 140 days | Hydrolysis DT50 ([3]; pH 5, 25° C.): pH sensitive: DT50 9 days at pH 5, | Aqueous hydrolysis stability ([3]; pH 9): stable at pH 9, all at 25° C.^+

CC(Oc1ccc(Oc2ccc(Cl)cc2Cl)cc1)C(=O)O (racemic) [diclofop, (RS)-2-[4-(2,4-dichlorophenoxy)phenoxy]propionic acid]
log P (octanol-water) ([2]; pH 5): log P = 2.81 | log P (octanol-water) ([2]; pH 7): log P = 1.61

CCOC(=O)[C@@H](C)Oc1ccc(Oc2nc3ccc(Cl)cc3o2)cc1 [fenoxaprop-p-ethyl, ethyl (R)-2-[4-(6-chloro-1,3-benzoxazol-2-yloxy)phenoxy]propionate]
Aqueous photolysis DT50 (pH 7): Aqueous photolysis DT50 at pH 7: 105 days | Solubility in acetone ([1]; 20° C.): In acetone, ethyl acetate, toluene, >200 g/L; | Solubility in ethyl acetate ([1]; 20° C.): In acetone, ethyl acetate, toluene, >200 g/L; | Solubility in methanol ([1]; 20° C.): methanol 43 g/L (all at 20° C.) ^+ | Solubility in water ([1]; pH 5.8, 25° C.): Water: 0.7 mg/L at pH 5.8 (25° C.) | log P (octanol-water) [2]: log P = 4.58 ^+ | Hydrolytic DT50 ([3]; pH 4, 25° C.): 2.8 days | Hydrolytic DT50 ([3]; pH 5, 25° C.): 19.2 days | Hydrolytic DT50 ([3]; pH 7, 25° C.): 23.2 days | Hydrolytic DT50 ([3]; pH 9, 25° C.): 7), 0.6 d (pH 9) (all at 25° C.) ^+

CCOC(=O)C(Cl)Cc1cc(-n2nc(C)n(C(F)F)c2=O)c(F)cc1Cl (racemic) [carfentrazone-ethyl, ethyl (RS)-2-chloro-3-{2-chloro-5-[4-(difluoromethyl)-4,5-dihydro-3-methyl-5-oxo-1H-1,2,4-triazol-1-yl]-4-fluorophenyl}propionate]
Solubility in acetone ([1]; 20° C.): 2000 mg/mL (≈ 4850 mM) | Solubility in ethanol ([1]; 20° C.): 2000 mg/mL (≈ 4850 mM) | Solubility in hexane ([1]; 20° C.): 30 mg/mL (≈ 72.8 mM) | Solubility in toluene ([1]; 20° C.): 900 mg/mL (≈ 2180 mM) | Solubility in water ([1]; 20° C.): Water: 22 mg/L (20° C.) | log P (octanol-water) ([2]; pH 7, 20° C.): logP = 3.36 | Aqueous hydrolysis (DT50) ([3]; 20° C. and pH 7): 13.7 (non-persistent) days | Aqueous hydrolysis stability ([3]; pH 5, 20° C.): pH sensitive: stable at pH 5, | Hydrolysis DT50 ([3]; pH 9, 20° C.): DT50 5.1 hours at pH 9, (20° C.)^+

CCCCOC(=O)C(C)Oc1ccc(Oc2ccc(C(F)(F)F)cn2)cc1 (racemic) [fluazifop-butyl, butyl (RS)-2-{4-[5-(trifluoromethyl)-2-pyridyloxy]phenoxy}propionate]
Solubility in propylene glycol ([1]; 20° C.): dichloromethane, and xylene. Propylene glycol, 24 g/L | Solubility in water ([1]; pH 6.5): Water: 1 mg/L at pH 6.5 | log P (octanol-water) ([2]; 20° C.): log P = 4.5

CC(Oc1ccc(Oc2ncc(C(F)(F)F)cc2Cl)cc1)C(=O)O (racemic) [haloxyfop, (RS)-2-{4-[3-chloro-5-(trifluoromethyl)-2-pyridyloxy]phenoxy}propionic acid]
Aqueous photolysis DT50 (pH 7): Aqueous photolysis DT50 at pH 7: 12 days | Aqueous hydrolysis (DT50) ([3]; 20° C. and pH 7): Stable

C#CCOc1cc(-n2nc3n(c2=O)CCCC3)c(Cl)cc1Cl [azafenidin, 2-(2,4-dichloro-5-prop-2-ynyloxyphenyl)-5,6,7,8-tetrahydro-1,2,4-triazolo[4,3-a]pyridin-3(2H)-one]
Aqueous photolysis DT50 (Pesticide Properties Database): 0.5 days | Solubility in water ([1]; 20° C.): Water: 16 mg/L (20° C.) ^++ | log P (octanol-water) ([2]; pH 7, 20° C.): logP = 2.7

COc1cc(OC)n2nc(NS(=O)(=O)c3c(C(F)(F)F)ccnc3OC)nc2n1 [pyroxsulam]
Photolytic stability DT50 (pH 7): DT50: 3.2 d (“”) | Aqueous hydrolysis [3]: Stable (“”)

COC(=O)c1ccccc1S(=O)(=O)NC(=O)N(C)c1nc(C)nc(OC)n1 [tribenuron-methyl]
Photolytic stability DT50 (pH 7): Stable | Aqueous hydrolysis (DT50) ([3]; at pH 5): 2.2 days | Aqueous hydrolysis (DT50) ([3]; at pH 7): 16

C#CCOC(=O)[C@@H](C)Oc1ccc(Oc2ncc(Cl)cc2F)cc1 [clodinafop-propargyl, prop-2-ynyl (R)-2-[4-(5-chloro-3-fluoro-2-pyridyloxy)phenoxy]propionate]
Aqueous photolysis DT50 (pH 7): Aqueous photolysis DT50 at pH 7: 24 days | Behaviour in alkaline media ([3]; alkaline media): hydrolyzes | Hydrolytic DT50 ([3]; pH 7, 25° C.): 4.8 days | Hydrolytic DT50 ([3]; pH 9, 25° C.): 0.07 days

COC(=O)c1ccccc1S(=O)(=O)NC(=O)Nc1nc(C)nc(OC)n1 [metsulfuron-methyl]
Photolytic stability DT50 (pH 7): Stable | Aqueous hydrolysis (DT50) ([3]; at pH 5): 2 days | Aqueous hydrolysis (DT50) ([3]; at pH 7): Stable

COc1cc(OC)n2nc(S(=O)(=O)Nc3c(Cl)ccc(C)c3Cl)nc2n1 [metosulam]
Photolytic stability DT50 (pH 7): DT50: 31.1 d | Aqueous hydrolysis [3]: Stable

CCCCOC(=O)[C@@H](C)Oc1ccc(Oc2ccc(C#N)cc2F)cc1 [cyhalofop-butyl, butyl (R)-2-[4-(4-cyano-2-fluorophenoxy)phenoxy]propionate]
log P (octanol-water) ([2]; pH 7, 20° C.): log P = 4.8 | Aqueous hydrolysis (DT50) ([3]; 20° C. and pH 7): Aqueous hydrolysis DT50 at 20 °C and pH 7: 97 days | Aqueous hydrolysis stability ([3]; pH 4, 25° C.): Stable | Hydrolysis DT50 ([3]; pH 9, 25° C.): 2 days

COC(=O)[C@@H](C)Oc1ccc(Oc2ncc(C(F)(F)F)cc2Cl)cc1 [haloxyfop-p-methyl, methyl (R)-2-{4-[3-chloro-5-(trifluoromethyl)-2-pyridyloxy]phenoxy}propionate]
Aqueous photolysis DT50 (pH 7): Aqueous photolysis DT50 at pH 7: 20 days^++ | Solubility in acetone ([1]; 25° C.): > 500 mg/mL | Solubility in dichloromethane ([1]; 25° C.): > 500 mg/mL | Solubility in ethyl acetate ([1]; 25° C.): > 500 mg/mL | Solubility in methanol ([1]; 25° C.): 76 mg/mL (≈ 202 mM) | Solubility in n-hexane ([1]; 25° C.): 11 mg/mL (≈ 29.3 mM) | Solubility in toluene ([1]; 25° C.): > 500 mg/mL | Solubility in water ([1]; pH 5, 25° C.): 6.9 mg/L (≈ 0.0184 mM) | Solubility in water ([1]; pH 7, 25° C.): 7.9 mg/L at pH 7 (all at 25° C.) | Solubility in water ([1]; unbuffered, 25° C.): 9.1 mg/L (≈ 0.0242 mM) | log P (octanol-water) ([2]; 20° C.): log P = 4.0 | DT50 ([3]; natural water, 20° C.): 3 days | DT50 ([3]; pH 4, 20° C.): stable | DT50 ([3]; pH 7, 20° C.): 43 days | DT50 ([3]; pH 9, 20° C.): 0.63 d (pH 9) (all at 20° C.) ^+

CCCCOC(=O)[C@@H](C)Oc1ccc(Oc2ccc(C(F)(F)F)cn2)cc1 [fluazifop-P-butyl, butyl (R)-2-{4-[5-(trifluoromethyl)-2-pyridyloxy]phenoxy}propionate]
Aqueous photolysis DT50 (pH 7): Aqueous photolysis DT50 at pH 7: 6 days | Aqueous hydrolysis (DT50) ([3]; 20° C. and pH 7): Aqueous hydrolysis DT50 (days) at 20 °C and pH 7: 78 | Hydrolysis DT50 ([3]; pH 5, 25° C., darkness): Stable | Hydrolysis DT50 ([3]; pH 9, 25° C., darkness): 1.21 days
